Here are results for 36 molecules from US5686495A, “Substituted hydrazinedicarboximidamides and methods of use thereof” (Cambridge NeuroScience, Inc., priority 1995, dated 1997).

Counter-ions that a name gives are not always drawn.

The test system of the first test is 3H-glutamate release from rat brain synaptosomes. The experiment in a line: Inhibition of K+-evoked 3H-glutamate release from synaptosomes (rapid superfusion). The class given is cell-based. The settings on record: Rattus norvegicus, read-out: relative level of glutamate release. The protocol:
To study the release of presynaptic ^3 H-glutamate, synaptosomes from young rats were used. CD Male rats of 4 to 6 weeks (50-75 g) were used for the preparation of synaptosomes. Rats were killed by decapitation with guillotine and the skull bone was opened in the center with the pointed blade of dissection scissors. The bone is then peeled away with a bone cutter and the brain is pried with a micro spatula. The cerebellum is removed and the rest of the brain is placed in 35 ml of 0.32M Sucrose solution and homogenized in a Thomas glass teflon homogenizer C at the maximum power setting (about 450 rpm) with 16 strokes. The pestle is rinsed with 5 ml of sucrose solution and added to the homogenate. The homogenate is centrifuged for 10 min at 3500 rpm (1500 g) in a SS-34 rotor in Sorvall RC-5B. The resulting pellet (P1) is discarded and the supernatant (S1) is recentrifuged for 20 min at 8700 rpm (8500 g). The supernatant (S2) is discarded and the pellet (P2) is resuspended in 5 ml of 0.32M sucrose and hand homogenized with 4 strokes (Thomas C) and the volume was made up to 8 ml. This homogenate was layered on 20 ml of 0.8M sucrose solution in two centrifuge tubes and spun for 25 minutes at 8700 rpm (8500 g). At the end of this spin, most of the myelin stays at the interphase of 0.32M and 0.8M sucrose and mitochondria pellet as a brown pellet. The synaptosomes are dispersed in the 0.8M sucrose. Using a 10 ml pipette, the 0.8M sucrose layer is collected (without disturbing the top myelin layer or the pellet) and diluted slowly with an equal volume of chilled basal buffer, while stirring gently with a Pasteur pipette. This diluted solution is centrifuged for 10 min at 10,000 rpm (12,000 g) and the pellet is resuspended in 1.5 ml of basal buffer and hand-homogenized in a Wheaton glass-glass 7 ml homogenizer with 8 strokes.
The synaptosomal homogenate is diluted 1 ml to 10 ml with basal buffer. This dilution gives a protein concentration of 500 to 600 μg/ml. One hundred μl of this diluted prep with 50-60 μg of protein is used for each superfusion event. […] The diluted synaptosomal solution was kept on ice until the end of the experiment.
^3 H-glutamate (purchased from NEN) is stored in the refrigerator. Pipette 6 μl ([…]; 40 to 55 Ci/mmol) into a disposable test tube. Add 100 μl of diluted prep and mix gently on vortex and incubate at 30° C. for 10 min. ^3 H-glutamate is taken up by sodium-coupledglutamate transporter present in synaptosomal membranes. After 10 min, dilute the incubation mixture with 690 μl of basal buffer. This solution is then transferred in Tygon tubing that is connected to the synaptosome loading chamber. Using a syringe filler with air, the solution is forced through the Millipore SC--GF/F--Millipore SC filter sandwich. These filters retain the synaptosomes and the solution flows through.
An important component of the superfusion setup is the custom made stainless steel "General Valve" three-valve solenoid operated superfusion chamber with an outlet for the effluent. The three inlets are connected to stainless steel buffer reservoirs that contain (1) wash buffer, (2) control buffer and (3) experimental buffer which are kept under 40 psi of nitrogen gas through teflon tubing connections. The superfusion is controlled through a menu-driven program on an Apple IIe computer. See Turner, J. T. et al., Anal. Biochem. 178:8-16 (1989), and U.S. Pat. No. 4,891,185, the disclosures of which are fully incorporated by reference herein.
The superfusion chamber has a teflon bushing and a stainless steel washer fixed with the flat surface facing the filters. A GF/B filter disc is placed first in the chamber to eliminate the switching related artifacts. The synaptosome loaded sandwich is then placed facing the synaptosomes into the flow followed by RA filter, stainless steel screen and a washer with the flat side facing the screen.
For `N=C(Nc1ccccc1I)Nc1ccccc1I` [N,N'-di-(2-iodophenyl)guanidine], the activity at 100 µM amounted to 61%.

Turning to `CC(C)c1ccccc1NC(=N)N(C)c1cccc2ccccc12` [N-(1-naphthyl)-N-methyl-N'-(o-isopropylphenyl)guanidine], the activity at 30 µM worked out at 95%.

On to `N=C(Nc1ccccc1I)NC12CC3CC(CC(C3)C1)C2` [N-(adamantan-1-yl)-N'-(2-iodophenyl)guanidine], for which the activity at 30 µM was found to be 39%.

Consider `N=C(Nc1ccccc1I)N[C@H]1C[C@H]2CC[C@@H]1C2` (relative stereo) [N-((±)-endo-2-norbornyl)-N' (2-iodophenyl)guanidine], for which the activity at 30 µM was 77%.

On to `Cc1ccccc1NC(=N)NC1CCCCC1` [N-cyclohexyl-N'-(2-methylphenyl)guanidine], for which the activity at 30 µM stood at 100%.

As to `CCc1cccc(NC(=N)Nc2cccc3ccccc23)c1` [N-(3-ethylphenyl)-N'-(1-naphthyl)guanidine], the activity at 30 µM was found to be 59%.

As to `Cc1ccccc1NC(=N)Nc1ccccc1C` [N,N'-di-(o-tolyl)guanidine], the activity at 100 µM was determined as 91%.

As to `Cc1ccccc1NC(=N)NC12CC3CC(CC(C3)C1)C2` [N-(adamantan-1-yl)-N'-(2-methylphenyl)guanidine], the activity at 30 µM amounted to 52% and the activity at 100 µM came out at 45%.

Regarding `N=C(Nc1ccccc1I)Nc1cccc2ccccc12` [N-(α-naphthyl)-N'-(2-iodophenyl)guanidine], the activity at 30 µM came out at 77%.

Consider `Cc1ccccc1CNCc1ccccc1C` [Di-(o-methyl)benzyl)amine], for which the activity at 30 µM was determined as 100%.

As to `CCc1cccc(NC(=N)N(C)c2cccc(CC)c2)c1` [N,N'-di-(3-ethylphenyl)-N-methylguanidine], the activity at 30 µM stood at 88%.

Turning to `Cc1ccccc1NC(=N)NC1C2CC3CC(C2)CC1C3` (stereo not shown) [N-(adamantan-2-yl)-N'-(2-methylphenyl)guanidine], the activity at 30 µM is 100%.

For `N=C(NC1CCCCC1)NC12CC3CC(CC(C3)C1)C2` [N-(adamantan-1-yl)-N'-cyclohexylguanidine], the activity at 30 µM turned out to be 120%.

On to `CC(C)c1ccccc1NC(=N)Nc1cccc2ccccc12` [N-(1-naphthyl)-N'-(o-isopropylphenyl)guanidine], for which the activity at 30 µM is 100%.

As to `N=C(Nc1ccccc1I)NC1C2CC3CC(C2)CC1C3` (stereo not shown) [N-(adamantan-2-yl)-N'-(2-iodophenyl)guanidine], the activity at 30 µM stood at 74%.

The test is the same for the next values; noted with them: Rattus norvegicus; 30 μM; Control = 100; K+ depolarization; read-out: relative level of glutamate release.
For `CCc1cccc(N(C)C(=N)Nc2cccc3ccccc23)c1` [N-(1-naphthyl)-N'-(m-ethylphenyl)-N'-methylguanidine], the activity at 30 µM is 76%.

Still in this test, the particulars now being: Rattus norvegicus; 100 μM; Control = 100; K+ depolarization; read-out: relative level of glutamate release.
With `CCc1cccc(N(C)C(=N)Nc2cccc3ccccc23)c1` [N-(1-naphthyl)-N'-(m-ethylphenyl)-N'-methylguanidine], the activity at 100 µM was determined as 21%.

The subject of another test is potassium-stimulated 45Ca uptake of synaptosomes. The experiment in a line: Potassium-stimulated 45Ca uptake into synaptosomes. Format: cell-based, rat. The settings on record: 10 μM; potassium-stimulated uptake of calcium into synaptosomes. The procedure:
Several compounds were also tested to determine whether the Ca^2+ dependent and independent components of glutamate release are related to the blockage of ^45 Ca uptake. Calcium uptake is one step in the cascade of events which occur in neuronal cell death from ischemia. See Bassaclough and Leach, Current Patents Ltd., 2-27. The Ca-flux protocol is as follows. Rat brain synaptosomes were prepared according to Hajos, Brain Res. 93:485 (1975). Synaptosomes were suspended in low potassium "LK" buffer (containing 3 mM KCl) at 2 mg/ml. […] After 5 seconds, the ^45 Ca flux was stopped with 0.9 ml quench solution (LK+10 mM EGTA). The solution was filtered under vacuum and the filters washed with 15 ml of quench buffer. The effect of drug is expressed as % inhibition (or block) of control potassium-stimulated ^45 Ca influx. This method is an adaptation of the method disclosed by Nachsen and Blaustein, J. Physiol. 361:251-268 (1985).
On to `N=C(Nc1cccc2nsnc12)NC12CC3CC(CC(C3)C1)C2` [N-(Adamantan-1-yl)-N'-(4,5-benzo-2-thia-1,3-diazol-6-yl)guanidine], for which the “% Uptake vs. Control” value was determined as 98%.

In the case of “N-(α-Naphthyl)-N'-(4-phenylpiperidinyl)-guanidine”, the “% Uptake vs. Control” value was determined as 79%.

Still in this test, the particulars now being: Rattus norvegicus, read-out: % Uptake vs. Control.
Regarding `N=C(NN1CCCc2ccccc21)NN1CCCc2ccccc21` [N,N'-Bis(1,2,3,4-tetrahydro-1-quinolinyl)-guanidine], the activity at 10 µM was determined as 87%.

Consider `CCOC(=O)c1cc2cccc(NC(=N)N(C)c3cccc(CC)c3)c2o1` [N-(m-Ethylphenyl)-N'-(2-carboethoxy-7-benzofuranyl)-N-methyl guanidine], for which the activity at 10 µM was found to be 71%.

As to `N=C(NCC12CC3CC(CC(C3)C1)C2)NCC12CC3CC(CC(C3)C1)C2` [N-N'-Bis(1-Adamantanemethyl)-guanidine], the activity at 10 µM is 111%.

As for `Cc1ccccc1N1CCCCN(c2ccccc2C)C1=N` [N,N'-Bis(o-tolyl)-N,N'-butanyl(bridge)-guanidine], the activity at 10 µM is 119%.

In the case of `N=C(NC1CCCCC1)NN1CCCCC1` [N-(Cyclohexyl)-N'-(1-piperidinyl)-guanidine], the activity at 10 µM was determined as 108%.

Regarding `N=C(NC1CCc2ccccc21)NC1CCc2ccccc21` (stereo not shown) [N,N'-Bis(indan-1-yl)-guanidine], the activity at 10 µM was 88%.

As for `CCc1cccc(N2CCN(c3cccc(CC)c3)C2=N)c1` [N,N'-Bis(m-ethylphenyl)-2-imino-imidazolidine], the activity at 10 µM stood at 101%.

On to `N=C(Nc1cccc2ccccc12)NN1CCCCC1` [N-(α-Naphthyl)-N'-(1-piperidinyl)-guanidine], for which the activity at 10 µM stood at 131%.

Regarding `CCc1cccc(N(C)C(=N)Nc2cccc3ccc(=O)oc23)c1` [N-(8-Aminocoumarinyl)-N'-(m-ethylphenyl)-N'-methyl-guanidine], the activity at 10 µM amounted to 151%.

As to `CCc1cccc(NC(=NC#N)Nc2cccc3ccccc23)c1` [N-(α-Naphthyl)-N'-(m-ethylphenyl)-N"-cyano-guanidine], the activity at 10 µM was 95%.

The same test, now with this note: Rattus norvegicus, read-out: Inhibition of 45Ca Uptake, % Inhibition @ 10 uM (SEM).
Regarding `CC(C)(C)c1ccc(NC(=N)Nc2ccc(C(C)(C)C)cc2)cc1` [N,N'-Bis(p-tert.-butylphenyl) guanidine], the inhibition (commonly the change of the read-out against control, counted positive when it falls) at 10 µM was 47%.

With `N=C(Nc1cccc2ccccc12)NC12CC3CC(CC(C3)C1)C2` [N-(Adamantan-1-yl)-N' (α-naphthyl)guanidine], the inhibition at 10 µM was determined as 31%.

Turning to `N=C(Nc1ccc2cccc3c2c1CC3)Nc1ccc2cccc3c2c1CC3` [N,N'-Bis (3-acenaphthyl)guanidine, N,N'-Bis (3-Acenaphthyl)Guanidine Hydrobromide], the inhibition at 10 µM came to 36%.

In the case of `N=C(NC1C2CC3CC(C2)CC1C3)NC12CC3CC(CC(C3)C1)C2` (stereo not shown) [N-(Adamantan-1-yl)-N'-(adamantan-2-yl)guanidine], the inhibition at 10 µM was 49%.

Take `CC(C)c1ccc(NC(=N)Nc2ccc(C(C)C)cc2)cc1` [N,N'-Di-(4-isopropylphenyl)guanidine]: the inhibition at 10 µM came to 48%.

Take `N=C(Nc1cccc2ccccc12)Nc1ccc2c3c(cccc13)CC2` [N-(5-acenaphthyl)-N'-(1-naphthyl)guanidine]: the inhibition at 10 µM was found to be 40 ± 6%.

As for `CC(C)c1ccc(NC(=N)Nc2ccc3c4c(cccc24)CC3)cc1` [N-(3- and 5-Acenaphthyl)-N'-(4-isopropylphenyl)-guanidine.HCl], the inhibition at 10 µM was found to be 68%.

Take `N=C(Nc1ccc2c3c(cccc13)CC2)NC12CC3CC(CC(C3)C1)C2` [N-(5-acenaphthyl)-N'-(adamant-1-yl)guanidine]: the inhibition at 10 µM was found to be 47 ± 11%.

The test is the same for the next values; noted with them: Rattus norvegicus, read-out: Inhibition of 45Ca Uptake, IC50.
As for `N=C(Nc1ccc2cccc3c2c1CC3)Nc1ccc2cccc3c2c1CC3` [N,N'-Bis (3-acenaphthyl)guanidine, N,N'-Bis (3-Acenaphthyl)Guanidine Hydrobromide], the IC50 (usually the concentration that gives 50% inhibition) was 11 µM.

Still in this test, the particulars now being: Rattus norvegicus; read-out: Inhibition of 45Ca Uptake, IC50.
Regarding `CC(C)c1ccc(NC(=N)Nc2ccc(C(C)C)cc2)cc1` [N,N'-Di-(4-isopropylphenyl)guanidine], the IC50 turned out to be 19 ± 7 µM.

On to `N=C(Nc1cccc2ccccc12)Nc1ccc2c3c(cccc13)CC2` [N-(5-acenaphthyl)-N'-(1-naphthyl)guanidine], for which the IC50 was found to be 16.2 ± 0.4 µM.

With `CC(C)c1ccc(NC(=N)Nc2ccc3c4c(cccc24)CC3)cc1` [N-(3- and 5-Acenaphthyl)-N'-(4-isopropylphenyl)-guanidine.HCl], the concentration for half-maximal inhibition (IC50) is 6.5 ± 1 µM.

With `N=C(Nc1ccc2c3c(cccc13)CC2)NC12CC3CC(CC(C3)C1)C2` [N-(5-acenaphthyl)-N'-(adamant-1-yl)guanidine], the 50% inhibitory concentration (IC50) came to 9.7 ± 3 µM.
